Measured values reported in article PMC6051913 (2018).

Experiments:
[1] = tested on: Bc 1–5 (RNA, riboswitch) GAUGUAACUGAAUGAAAUGGUGAAGGACGGGUCCACUUAUAACGAGAAGCGGAGGGACUGGCCCAAUGAAGCUUCAGCAACCAUUCAUUGCGAUGAAAAGGUGCUAAAUCCAGCAAAGGGAACUUUGGCAGAUAAGUUGUUGAGUAGAGUGUGAGCUCCGUAACUAGUUACAUC; assay: fluorescence titration; details: 125 mM KCl, 10 mM MgCl2; 40 mM HEPES pH 7.5, 37 °C, 100 nM RNA, 10 µM DFHBI
[2] = tested on: Bs 4-4 (RNA, riboswitch) GAUGUAACUGAAUGAAAUGGUGAAGGACGGGUCCACUUGGAAGAUAAGAAGCAAUUCUUAUCAAGAGAAGCAGAGGGACUGGCCCGACGAAGCUUCAGCAACCGGUGUAAUGGCGAUCAGCCAUGACCAAGGUGCUAAAUCCAGCAAGUUGUUGAGUAGAGUGUGAGCUCCGUAACUAGUUACAUC; assay: fluorescence titration; details: 125 mM KCl, 10 mM MgCl2; 40 mM HEPES pH 7.5, 37 °C, 100 nM RNA, 10 µM DFHBI

KD [1]: ~ 1.7 µM
dissociation constant [2]: 1.0 µM
Structure (SMILES): C[S+](CC[C@H](N)C(=O)O)C[C@H]1O[C@@H](n2cnc3c(N)ncnc32)[C@H](O)[C@@H]1O (some centres unmarked)
